Several values for one entry are separate records, joined by “and”; a condition that tells them apart may be missing. Equal entries are not always repeated.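 48-hour exposure; five concentrations; linearly interpolated endpoints. The concentration for 50% growth inhibition is given as GI50. TGI denotes the concentration required for complete inhibition of growth.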
Tests used:
Assay in all cases: NCI anticancer screen, dose series, 48 h
OVCAR-3 ovarian = test system: OVCAR-3 ovarian
SW-620 colon = test system: SW-620 colon
CAKI-1 renal = test system: CAKI-1 renal
MDA-MB-231 breast = test system: MDA-MB-231 breast
A498 renal = test system: A498 renal
HOP-92 NSCLC = test system: HOP-92 NSCLC
RPMI-8226 leukemia = test system: RPMI-8226 leukemia
NCI/ADR-RES ovarian = test system: NCI/ADR-RES ovarian
OVCAR-5 ovarian = test system: OVCAR-5 ovarian
SNB-75 CNS = test system: SNB-75 CNS
SNB-19 CNS = test system: SNB-19 CNS
OVCAR-8 ovarian = test system: OVCAR-8 ovarian
UACC-257 melanoma = test system: UACC-257 melanoma
LOX IMVI melanoma = test system: LOX IMVI melanoma
NCI-H226 lung = test system: NCI-H226 lung
T-47D breast = test system: T-47D breast
786-0 renal = test system: 786-0 renal
SN12C renal = test system: SN12C renal
RXF 393 renal = test system: RXF 393 renal
BT-549 breast = test system: BT-549 breast
UACC-62 melanoma = test system: UACC-62 melanoma
HCT-15 colon = test system: HCT-15 colon
DU-145 prostate = test system: DU-145 prostate
ACHN renal = test system: ACHN renal
SK-MEL-5 melanoma = test system: SK-MEL-5 melanoma
A549 NSCLC = test system: A549 NSCLC
HCT-116 colon = test system: HCT-116 colon
SF-295 CNS = test system: SF-295 CNS
SR leukemia = test system: SR leukemia
SK-OV-3 ovarian = test system: SK-OV-3 ovarian
SF-539 CNS = test system: SF-539 CNS
IGROV1 ovarian = test system: IGROV1 ovarian
HOP-62 NSCLC = test system: HOP-62 NSCLC
MOLT-4 leukemia = test system: MOLT-4 leukemia
U251 CNS = test system: U251 CNS
NCI-H23 lung = test system: NCI-H23 lung
CCRF-CEM leukemia = test system: CCRF-CEM leukemia
MDA-MB-435 = test system: MDA-MB-435
COLO 205 colon = test system: COLO 205 colon
MCF7 breast = test system: MCF7 breast
HL-60(TB) leukemia = test system: HL-60(TB) leukemia
HCC-2998 colon = test system: HCC-2998 colon
MALME-3M melanoma = test system: MALME-3M melanoma
M14 melanoma = test system: M14 melanoma
SF-268 CNS = test system: SF-268 CNS
TK-10 renal = test system: TK-10 renal
K-562 leukemia = test system: K-562 leukemia
EKVX NSCLC = test system: EKVX NSCLC
HT29 colon = test system: HT29 colon
PC-3 prostate = test system: PC-3 prostate
KM12 colon = test system: KM12 colon
HS 578T breast = test system: HS 578T breast
UO-31 renal = test system: UO-31 renal
SK-MEL-28 melanoma = test system: SK-MEL-28 melanoma
NCI-H460 lung = test system: NCI-H460 lung
OVCAR-4 ovarian = test system: OVCAR-4 ovarian
SK-MEL-2 melanoma = test system: SK-MEL-2 melanoma
NCI-H522 lung = test system: NCI-H522 lung

COc1cc2ncnc3c2cc1OCCCCCN(C)Cc1ccc(Br)cc1N3
GI50 (OVCAR-3 ovarian): 2.48 µM and 1.76 µM | TGI (OVCAR-3 ovarian): > 100 µM | GI50 (SW-620 colon): 6.31 µM and 5.72 µM | TGI (SW-620 colon): > 100 µM | GI50 (CAKI-1 renal): 0.288 µM and 0.375 µM | TGI (CAKI-1 renal): > 100 µM | GI50 (MDA-MB-231 breast): 10.6 µM and 7.51 µM | TGI (MDA-MB-231 breast): 50.9 µM and > 10 µM | GI50 (A498 renal): 1.35 µM and 0.539 µM | TGI (A498 renal): 17.3 µM and > 10 µM | GI50 (HOP-92 NSCLC): 3.61 µM and 1 µM | TGI (HOP-92 NSCLC): 71.5 µM and > 10 µM | GI50 (RPMI-8226 leukemia): 7.39 µM and 3.92 µM | TGI (RPMI-8226 leukemia): > 100 µM | GI50 (NCI/ADR-RES ovarian): 3.34 µM and 2.04 µM | TGI (NCI/ADR-RES ovarian): > 100 µM | GI50 (OVCAR-5 ovarian): 12.9 µM and 1.87 µM | TGI (OVCAR-5 ovarian): > 100 µM | GI50 (SNB-75 CNS): 6.14 µM and 2.91 µM | TGI (SNB-75 CNS): 64 µM and > 10 µM | GI50 (SNB-19 CNS): 24.6 µM and > 10 µM | TGI (SNB-19 CNS): > 100 µM | GI50 (OVCAR-8 ovarian): 12 µM and 2.67 µM | TGI (OVCAR-8 ovarian): > 100 µM | GI50 (UACC-257 melanoma): 17.9 µM and > 10 µM | TGI (UACC-257 melanoma): > 100 µM | GI50 (LOX IMVI melanoma): 2.93 µM and 2.12 µM | TGI (LOX IMVI melanoma): > 100 µM | GI50 (NCI-H226 lung): 26.4 µM and 7.69 µM | TGI (NCI-H226 lung): > 100 µM | GI50 (T-47D breast): 0.643 µM and 0.446 µM | TGI (T-47D breast): 85.4 µM and 9.5 µM | GI50 (786-0 renal): 37.4 µM and 5.07 µM | TGI (786-0 renal): > 100 µM | GI50 (SN12C renal): 5.45 µM and 1.32 µM | TGI (SN12C renal): > 100 µM | GI50 (RXF 393 renal): 4.03 µM and 1.84 µM | TGI (RXF 393 renal): > 100 µM | GI50 (BT-549 breast): 21.8 µM and 6.87 µM | TGI (BT-549 breast): > 100 µM | GI50 (UACC-62 melanoma): 2.35 µM and 0.969 µM | TGI (UACC-62 melanoma): > 100 µM | GI50 (HCT-15 colon): 0.885 µM and 0.975 µM | TGI (HCT-15 colon): > 100 µM | GI50 (DU-145 prostate): 0.676 µM and 0.555 µM | TGI (DU-145 prostate): > 100 µM | GI50 (ACHN renal): 0.0871 µM and 0.262 µM | TGI (ACHN renal): 37.5 µM and > 10 µM | GI50 (SK-MEL-5 melanoma): 24 µM | TGI (SK-MEL-5 melanoma): > 100 µM | GI50 (A549 NSCLC): 6.23 µM and 1.9 µM | TGI (A549 NSCLC): > 100 µM | GI50 (HCT-116 colon): 13.9 µM and 1.48 µM | TGI (HCT-116 colon): > 100 µM | GI50 (SF-295 CNS): 14.1 µM and 5.13 µM | TGI (SF-295 CNS): > 100 µM | GI50 (SR leukemia): 9.25 µM and 3.38 µM | TGI (SR leukemia): > 100 µM | GI50 (SK-OV-3 ovarian): 0.315 µM | TGI (SK-OV-3 ovarian): 1.09 µM | GI50 (SF-539 CNS): > 100 µM | TGI (SF-539 CNS): > 100 µM | GI50 (IGROV1 ovarian): 0.35 µM and 0.31 µM | TGI (IGROV1 ovarian): 10.6 µM and 4.31 µM | GI50 (HOP-62 NSCLC): 21.7 µM and 8.36 µM | TGI (HOP-62 NSCLC): > 100 µM | GI50 (MOLT-4 leukemia): 6.85 µM and 3.88 µM | TGI (MOLT-4 leukemia): > 100 µM | GI50 (U251 CNS): 34.3 µM and 5.33 µM | TGI (U251 CNS): > 100 µM | GI50 (NCI-H23 lung): 40.8 µM and > 10 µM | TGI (NCI-H23 lung): > 100 µM | GI50 (CCRF-CEM leukemia): 10.2 µM and > 10 µM | TGI (CCRF-CEM leukemia): > 100 µM | GI50 (MDA-MB-435): 8.63 µM and 7.39 µM | TGI (MDA-MB-435): > 100 µM | GI50 (COLO 205 colon): 5.68 µM and 4.67 µM | TGI (COLO 205 colon): > 100 µM | GI50 (MCF7 breast): 8.89 µM and 5.35 µM | TGI (MCF7 breast): > 100 µM | GI50 (HL-60(TB) leukemia): 2.94 µM and 3.68 µM | TGI (HL-60(TB) leukemia): > 100 µM | GI50 (HCC-2998 colon): 17.7 µM and > 10 µM | TGI (HCC-2998 colon): > 100 µM | GI50 (MALME-3M melanoma): 1.47 µM and 6.85 µM | TGI (MALME-3M melanoma): 23.3 µM and > 10 µM | GI50 (M14 melanoma): 1.94 µM and 0.939 µM | TGI (M14 melanoma): > 100 µM | GI50 (SF-268 CNS): 29.5 µM and 4.01 µM | TGI (SF-268 CNS): > 100 µM | GI50 (TK-10 renal): 0.186 µM and 0.166 µM | TGI (TK-10 renal): > 100 µM | GI50 (K-562 leukemia): 3.98 µM and 2.93 µM | TGI (K-562 leukemia): > 100 µM | GI50 (EKVX NSCLC): 0.24 µM | TGI (EKVX NSCLC): > 10 µM | GI50 (HT29 colon): 6.34 µM and 3.35 µM | TGI (HT29 colon): > 100 µM | GI50 (PC-3 prostate): 4.65 µM and 3.85 µM | TGI (PC-3 prostate): > 100 µM | GI50 (KM12 colon): 13.2 µM and > 10 µM | TGI (KM12 colon): > 100 µM | GI50 (HS 578T breast): 10.2 µM and 1.52 µM | TGI (HS 578T breast): > 100 µM | GI50 (UO-31 renal): 0.285 µM and 0.267 µM | TGI (UO-31 renal): > 100 µM | GI50 (SK-MEL-28 melanoma): 6.68 µM and 7.54 µM | TGI (SK-MEL-28 melanoma): > 100 µM | GI50 (NCI-H460 lung): 3.44 µM and 1.27 µM | TGI (NCI-H460 lung): > 100 µM | GI50 (OVCAR-4 ovarian): 2.57 µM and 1.34 µM | TGI (OVCAR-4 ovarian): 43.1 µM and > 10 µM | GI50 (SK-MEL-2 melanoma): 6.37 µM and 2.2 µM | TGI (SK-MEL-2 melanoma): > 100 µM | GI50 (NCI-H522 lung): 0.851 µM and 0.225 µM

— PubChem BioAssay (NCI)
